# Measurements published in patent US8865672B2, “Prevention of tissue ischemia and related methods” (The United States of America, as represented by the …, priority 2006, dated 2014).
# Tests used:
# [1] = tested on: random myocutaneous flaps in mice; assay: Random myocutaneous (McFarlane) flap model; assay type: in vivo, mouse
# Method: WT and TSP1 null mice were matched for sex and age. Under isoflurane inhalation anesthesia 1×2 cm random myocutaneous flaps were raised. Where indicated, animals received either L-NAME (0.5 mg/ml) or ISDN (1 mg/ml) ad libitum in drinking water during the post-operative period. On postoperative day 7, the animals were again anesthetized with inhalation isoflurane and flaps evaluated. Viable and necrotic areas of the flaps were determined by color, refill, eschar, and the pin-prick test. Outlines of viable and nonviable areas were traced using transparent film and the area of flap necrosis versus total flap area determined as described (Yu et al., Proc Natl Acad Sci USA 102:10999-11004, 2005).
# Wild type, TSP1 null, CD36 null and CD47 null mice were matched for sex and age underwent random dorsal myocutaneous flaps as described (Isenberg et al., Blood 2006; Example 2) and tissue harvested on postoperative day 7.
# The necrotic area of the flap was determined as described (Isenberg et al., Blood. Nov. 2, 2006) Animals were then euthanized and flaps excised, fixed in 10% paraformaldehyde and processed for histology.
# Random myocutaneous flap wound beds and/or ischemic hindlimb vastus medialis muscle was assessed at indicated time points (72 hours or 7 days post-operatively) for visible alterations in vascularity under 5× magnification. An arbitrary though strictly applied definition of countable vessels was employed to highlight both individual vessels and vascular ramifications. In any given vascular plexus visible by 5× magnification a vessel was defined as that segment traversing two branches. Visible vessels without ramifications and branches were counted once. Treatment status and genetic background of tissue images was not known by the reviewer.
# Animals underwent creation of a random myocutaneous (McFarlane) flap as previously described (Isenberg et al., Blood 109:1945-1952, 2007). Some animals received either ISDN (1 mg/mL) or L-NAME (0.5 mg/ml) ad libitum in the drinking water during the post-operative interval.
# Flap soft tissue units and underling wound beds were injected with control vehicle (normal saline), a CD47 morpholino or a control morpholino (10 μM) in sterile saline. Flap survival was determined as described.
# [2] = tested on: random dorsal cutaneous flaps in white hairless Yucatan miniature pigs; assay: Porcine random cutaneous flap model; assay type: in vivo, pig; details: for flap necrosis: 2×10 cm flaps, injection at surgery
# Method: Animals underwent shaving of the dorsal surface hair and cleansing of the skin with soap and alcohol. Random dorsal cutaneous flaps 2×10×0.5 cm were elevated and immediately sutured in place with interrupted 4-0 nylon suture (Ethicon, Johnson & Johnson, N.J.). Treated flaps were injected with the indicated amounts of drug in sterile normal saline. On the 3 and 7 post-operative days tissue survival was determined and flaps excised for histology. In some instances animals received intravenous fluorescein prior to euthanasia and flap perfusion assessed under ultra violet illumination.
# Clinical assessment of flap perfusion was performed with notation of color, capillary refill and bleeding to needle stick being recorded. Flap dimensions were then traced onto a clear plastic sheet and with demarcation of viable and non-viable areas made.
# The internal jugular vein and common carotid arteries were cannulated and the animals perfused with a volume of 5 L heparinized (50 U/mL) normal saline heated to 50° C. A mixture of India ink and gelatin (5%) heated to 50° C. (1 L) was administered by gently pressing and then releasing the plunger of the syringe to simulate the arterial pulse. The flaps were excised and placed in 100% glycerin and stored at 4° C. for 10 days. During this time flap tissue became thin, desiccated and transparent and allowed visualization of the vascular architecture under direct transillumination.
# [3] = tested on: ischemic hindlimbs in mice; assay: Hindlimb ischemia model; assay type: in vivo, mouse; details: ischemic wild type hindlimbs; for hindlimb tissue necrosis: morpholino 10 μM to thigh musculature
# Method: Wild type C57BL6, TSP1 null, CD47 null and CD36 null mice, age and sex matched, underwent ligation of the left external iliac and common femoral arteries. The right limb served as control. All animals underwent examination every 24 h to assess clinical ischemia based on a previously published index (Paek et al., J Vasc Surg. 36:172-179, 2002). At the end of 3 or 7 days animals were euthanized, and the tibialis anterior muscles from the right and left limbs were harvested, weighed and processed for mitochondrial viability.
# Mitochondrial viability of hindlimb muscle biopsies was assessed by the reduction of a tetrazolium salt to water insoluble formazan through mitochondrial oxidation as described (Bonheur et al., J Surg Res. 116:55-63, 2004). Tibialis anterior muscle biopsies were weighed and incubated in 3 ml of PBS supplemented 1:10 with 3-(4,5-dimethylthiazol-2-yl)-2,5 diphenyl tetrazolium stock (MTT, Promega, Madison, Wis.) for 3 h in the dark at 37° C., washed with distilled water and blotted dry. The formazan salt was extracted in 3 ml of 2-propranol for 6 hours in the dark at 37° C. Absorbance for 200 μl aliquots was determined at 425 nm on a microplate reader. Muscle samples were dried at 90° C. and weighed again. Results were expressed as absorbance normalized to dry tissue weight.
# [4] = tested on: CD47; assay: Western analysis of CD47 in HUVEC; assay type: cell-based, human; details: morpholino 0.1-10 μM, 48 h
# Method: HUVEC were plated in 12-well culture plates (5×10^4 cells/well) (Nunc, Denmark) in full growth medium and treated over 48 h with indicated doses of CD47 and control morpholino. Cells were subsequently washed twice with PBS and lysed immediately in 1×SDS sample buffer containing 10 µg/mL leupeptin, […] aprotinin, 1 mM Na3VO4, and 40 mM NaF. Lysates prepared in the SDS sample buffer described above were electrophoresed in 4-12% BisTris NuPAGE gels and transferred to PVDF membranes prior to immunoblotting with a monoclonal antibody to CD47 (clone B6H12, Lab Visions, Inc, Fremont, Calif.). The membrane was stripped and reprobed with a monoclonal antibody against β-actin (Sigma-Aldrich, St. Louis, Mo.).
# [5] = tested on: vascular cell outgrowth from muscle explants; assay: Explant invasion assay in 3D collagen; assay type: cell-based, mouse; details: TSP1 1 μg/ml
# Method: Muscle biopsies from the pectoralis major muscle of 8 to 12 week old wild type or transgenic mice were harvested and explanted into 100 μl of type I collagen gel in 96-well tissue culture plates as described (Isenberg et al., Matrix Biol 24:110-123, 2005). Following gelation, the embedded explants were overlayed with 75 μl of EGM+2% FCS in the presence or absence of a dose range of DETA/NO (0.01-1000 μM) and other indicated treatments and then incubated at 37° C. and 5% CO2 for 7 days, at which time maximum vascular cell migration through the matrix was measured.
# [6] = WT mice 14-18 months, injected to flap and wound bed
# [7] = wild type flaps, local injection, day 7
# [8] = wild type flaps, morpholino 10 μM
Substance,"flap tissue survival ([1]; ApoE-null mice 12-16 months, high fat diet, day 7)","flap tissue survival [1, 6]",flap mitochondrial viability ([1]; aged WT flaps),remodeling of collateral flap vessels ([1]; aged WT flaps),"flap tissue survival [1, 7]","CD47 immunohistochemical staining of flaps [1, 8]","wound bed vascularity [1, 8]",flap necrosis [2],flap tissue survival ([2]; compared to untreated flaps),muscle mitochondrial viability [3],hindlimb tissue necrosis [3],CD47 expression (Western) [4],India ink staining of flap vessels ([2]; post-operative day 3),ability to antagonize NO-stimulated vascular outgrowth ([5]; CD36-null explants),ability to antagonize NO-stimulated vascular outgrowth ([5]; CD47-null explants)
CGTCACAGGCAGGACCCACTGCCCA (all phosphorodiamidate morpholino (PMO)) [CD47 morpholino],84±7%,91±4%,markedly increased,substantial remodeling of existing collateral flap vessels,~100%,decreased protein staining,substantial increases in visible blood vessels,12±3%,significantly more tissue survival,increased muscle mitochondrial viability,essentially no tissue necrosis,Effective dose-dependent suppression of CD47,,,
"CGTgACAGcCAcGACCgACTGCgCA (antisense CGTGACAGCCACGACCGACTGCGCA; all phosphorodiamidate morpholino (PMO)) [control morpholino, reference compound]",,degrees of tissue necrosis comparable to untreated aged WT animals,,,necrosis comparable to that for untreated wild type flaps,,,34±6%,,,did not protect,did not show suppression of CD47,lack of India ink staining of vessels,,
TSP1: thrombospondin-1 prepared from human platelets,,,,,,,,,,,,,,preserved,lost
